Experimental data as given in ChEMBL document CHEMBL5252558, “Noonindoles G-L: Indole Diterpene Glycosides from the Australian Marine-Derived Fungus Aspergillus noonimiae CMB-M0339” (J Nat Prod, 2023).
pIC50: −log10 of the molar value. Activity calls are given as the source filed them. No cut-off for these calls is given here.

How the values were obtained:
Escherichia coli = experiment: Antibacterial activity against Escherichia coli ATCC 11775 assessed as inhibition of bacterial growth incubated for 24 hrs by spectrophotometric analysis; format: functional, organism-based
Candida albicans = experiment: Antifungal activity against Candida albicans ATCC 10231 assessed as inhibition of fungal growth incubated for 48 hrs by spectrophotometric analysis; format: functional, organism-based
NCI-H460 = experiment: Cytotoxicity against human NCI-H460 cells assessed as inhibition of cell growth incubated for 68 hrs by MTT assay; format: functional, cell-based; conditions: NCI-H460, 68 h
Staphylococcus aureus = experiment: Antibacterial activity against Staphylococcus aureus ATCC 25923 assessed as inhibition of bacterial growth incubated for 24 hrs by spectrophotometric analysis; format: functional, organism-based
SW-620 = experiment: Cytotoxicity against human SW620 cells assessed as inhibition of cell growth incubated for 68 hrs by MTT assay; format: functional, cell-based; conditions: SW-620, 68 h
Bacillus subtilis = experiment: Antibacterial activity against Bacillus subtilis ATCC 6633 assessed as inhibition of bacterial growth incubated for 24 hrs by spectrophotometric analysis; format: functional, organism-based

Compound	Activity (Escherichia coli)	Activity (Candida albicans)	pIC50 (NCI-H460)	Activity (Staphylococcus aureus)	pIC50 (SW-620)	Activity (Bacillus subtilis)
CC(C)(O[C@@H]1O[C@H](CO)[C@@H](O)[C@H](O)[C@@H]1O)[C@@H]1CC[C@]2(C=O)[C@H](CC[C@@]3(C)[C@H]2CC[C@H]2Cc4c([nH]c5ccccc45)[C@@]23C)O1	inactive	inactive	< 4.52	inactive	< 4.52	inactive
CC(C)(O[C@@H]1O[C@H](CO)[C@@H](O)[C@H](O)[C@@H]1O)[C@H]1O[C@@]2(O)CC[C@@]3(C)[C@@H](CC[C@H]4Cc5c([nH]c6ccccc56)[C@@]43C)C2=CC1=O	inactive	inactive	< 4.52	inactive	< 4.52	inactive
CC(C)(O[C@@H]1O[C@H](CO)[C@@H](O)[C@H](O)[C@@H]1O)[C@@H]1CC[C@]2(CO)[C@H](CC[C@@]3(C)[C@H]2CC[C@H]2Cc4c([nH]c5ccccc45)[C@@]23C)O1	inactive	inactive	< 4.52	inactive	< 4.52	inactive
CC(C)(O[C@@H]1O[C@H](CO)[C@@H](O)[C@H](O)[C@@H]1O)[C@H]1O[C@H]2CC[C@@]3(C)[C@@H](CC[C@H]4Cc5c([nH]c6ccccc56)[C@@]43C)C2=CC1=O	inactive	inactive	< 4.52	inactive	< 4.52	inactive
CC(C)(O[C@@H]1O[C@H](CO)[C@@H](O)[C@H](O)[C@@H]1O)[C@@H]1CC[C@]2(C)[C@H](CC[C@@]3(C)[C@H]2CC[C@H]2Cc4c([nH]c5ccccc45)[C@@]23C)O1	inactive	inactive	< 4.52	inactive	< 4.52	inactive
CC(C)(O[C@@H]1O[C@H](CO)[C@@H](O)[C@H](O)[C@@H]1O)[C@H]1O[C@H]2CC[C@@]3(C)[C@@H](CC[C@H]4Cc5c([nH]c6ccccc56)[C@@]43C)C2=C[C@H]1O	inactive	inactive	< 4.52	inactive	< 4.52	inactive
